Species on record: Rattus norvegicus
Test: Open TG-GATES - Regimen: Single
Type: toxicity, organism-based, Sprague-Dawley
Parameters: regimen Single, gender Male, age 6 weeks
Details: in vivo, po, 25 mg/kg, route gavage, dose level Low; for APTT / Bas / Eos / Fbg / Hb / Ht / Lym / MCH / MCHC / MCV / Mono / Neu / PT / Plat / RBC / Ret / WBC: tissue Blood; for KIDNEY_L / KIDNEY_R / KIDNEY_TOTAL: tissue Kidney; for LIVER: tissue Liver; for A/G / ALP / ALT / AST / BUN / CRE / Ca / Cl / DBIL / GLC / IP / K / LDH / Na / PL / RALB / TBIL / TC / TG / TP / gamma-GTP: tissue Plasma

`CCSCC[C@H](N)C(=O)O` [ETHIONINE] was tested, and the TERMINAL_BW (3 h) was 217.8 g, the APTT (3 h) was 19.1 s and the Bas (3 h) was 0%. The Eos (3 h) was 1.2%, the Fbg (3 h) was 211.4 mg/dL and the Hb (3 h) was 13.1 g/dL. It also gave a Ht (3 h) of 38.9%, a Lym (3 h) of 83.4% and an MCH (3 h) of 21.1 pg. For the same compound, the MCHC (3 h) was 33.5%, the MCV (3 h) was 62.9 fL and the Mono (3 h) was 2.4%. The Neu (3 h) was 12.2%, the PT (3 h) was 12.4 s and the Plat (3 h) was 120.2 x10_4/uL. The RBC (3 h) was 619.2 x10_4/ul, the Ret (3 h) was 6.9% and the WBC (3 h) was 89.8 x10_2/uL. The KIDNEY_L (3 h) was 0.9 g, the KIDNEY_R (3 h) was 0.9 g and the KIDNEY_TOTAL (3 h) was 1.9 g. It also gave an LIVER (3 h) of 10.1 g, an A/G (3 h) of 1.6 and an ALP (3 h) of 855.8 IU/L. The ALT (3 h) was 33 IU/L, the AST (3 h) was 66 IU/L and the BUN (3 h) was 11.2 mg/dL. It also gave a CRE (3 h) of 0.4 mg/dL, a Ca (3 h) of 10.5 mg/dL and a Cl (3 h) of 101.8 meq/L. For the same compound, the DBIL (3 h) was 0.056 mg/dL, the GLC (3 h) was 202.4 mg/dL and the IP (3 h) was 9.7 mg/dL. It also gave a K (3 h) of 4 meq/L, an LDH (3 h) of 212.6 IU/L and a Na (3 h) of 140.4 meq/L. The PL (3 h) was 138.4 mg/dL, the RALB (3 h) was 3.2 g/dL and the TBIL (3 h) was 0.1 mg/dL. The TC (3 h) was 77.8 mg/dL, the TG (3 h) was 61.2 mg/dL and the TP (3 h) was 5.2 g/dL. The gamma-GTP (3 h) was 1 IU/L, the TERMINAL_BW (6 h) was 214.9 g and the APTT (6 h) was 19.4 s. For the same compound, the Bas (6 h) was 0%, the Eos (6 h) was 1% and the Fbg (6 h) was 210.6 mg/dL. It also gave a Hb (6 h) of 13.3 g/dL, a Ht (6 h) of 39.1% and a Lym (6 h) of 82%. It also gave an MCH (6 h) of 21.4 pg, an MCHC (6 h) of 33.9% and an MCV (6 h) of 62.9 fL. The Mono (6 h) was 2.4%, the Neu (6 h) was 14% and the PT (6 h) was 12.7 s. The Plat (6 h) was 118.7 x10_4/uL, the RBC (6 h) was 620.4 x10_4/ul and the Ret (6 h) was 6.7%. The WBC (6 h) was 82.3 x10_2/uL, the KIDNEY_L (6 h) was 1 g and the KIDNEY_R (6 h) was 1 g. The KIDNEY_TOTAL (6 h) was 2 g, the LIVER (6 h) was 9.3 g and the A/G (6 h) was 1.6. For the same compound, the ALP (6 h) was 885.2 IU/L, the ALT (6 h) was 31.4 IU/L and the AST (6 h) was 63.8 IU/L. For the same compound, the BUN (6 h) was 9.4 mg/dL, the CRE (6 h) was 0.4 mg/dL and the Ca (6 h) was 10.2 mg/dL. It also gave a Cl (6 h) of 102.8 meq/L, a DBIL (6 h) of 0.058 mg/dL and a GLC (6 h) of 191.2 mg/dL. For the same compound, the IP (6 h) was 9.5 mg/dL, the K (6 h) was 3.8 meq/L and the LDH (6 h) was 224.2 IU/L. It also gave a Na (6 h) of 139.6 meq/L, a PL (6 h) of 126.8 mg/dL and an RALB (6 h) of 3.2 g/dL. For the same compound, the TBIL (6 h) was 0.1 mg/dL, the TC (6 h) was 66.4 mg/dL and the TG (6 h) was 52.6 mg/dL. The TP (6 h) was 5.2 g/dL, the gamma-GTP (6 h) was 1.6 IU/L and the TERMINAL_BW (9 h) was 212.9 g. The APTT (9 h) was 18.9 s, the Bas (9 h) was 0% and the Eos (9 h) was 1%. The Fbg (9 h) was 228.2 mg/dL, the Hb (9 h) was 13.4 g/dL and the Ht (9 h) was 39.3%. The Lym (9 h) was 71%, the MCH (9 h) was 21.3 pg and the MCHC (9 h) was 34%. It also gave an MCV (9 h) of 62.6 fL, a Mono (9 h) of 2.2% and a Neu (9 h) of 25.4%. The PT (9 h) was 12.6 s, the Plat (9 h) was 125.9 x10_4/uL and the RBC (9 h) was 629.2 x10_4/ul. The Ret (9 h) was 6.8%, the WBC (9 h) was 95.5 x10_2/uL and the KIDNEY_L (9 h) was 0.9 g. The KIDNEY_R (9 h) was 0.9 g, the KIDNEY_TOTAL (9 h) was 1.8 g and the LIVER (9 h) was 9 g. It also gave an A/G (9 h) of 1.6, an ALP (9 h) of 842.8 IU/L and an ALT (9 h) of 33.2 IU/L. The AST (9 h) was 69.6 IU/L, the BUN (9 h) was 11.2 mg/dL and the CRE (9 h) was 0.3 mg/dL. The Ca (9 h) was 10.5 mg/dL, the Cl (9 h) was 101.8 meq/L and the DBIL (9 h) was 0.074 mg/dL. For the same compound, the GLC (9 h) was 197 mg/dL, the IP (9 h) was 9.6 mg/dL and the K (9 h) was 3.7 meq/L. The LDH (9 h) was 200.6 IU/L, the Na (9 h) was 141 meq/L and the PL (9 h) was 123.4 mg/dL. It also gave an RALB (9 h) of 3.4 g/dL, a TBIL (9 h) of 0.1 mg/dL and a TC (9 h) of 63.6 mg/dL. The TG (9 h) was 75.8 mg/dL, the TP (9 h) was 5.6 g/dL and the gamma-GTP (9 h) was 0.8 IU/L. The TERMINAL_BW (24 h) was 231.8 g, the APTT (24 h) was 20 s and the Bas (24 h) was 0%. The Eos (24 h) was 1%, the Fbg (24 h) was 234 mg/dL and the Hb (24 h) was 13.3 g/dL. The Ht (24 h) was 38.9%, the Lym (24 h) was 80% and the MCH (24 h) was 21.7 pg. The MCHC (24 h) was 34.2%, the MCV (24 h) was 63.6 fL and the Mono (24 h) was 3%. The Neu (24 h) was 15.4%, the PT (24 h) was 12.7 s and the Plat (24 h) was 126.9 x10_4/uL. It also gave an RBC (24 h) of 612 x10_4/ul, a Ret (24 h) of 6.8% and a WBC (24 h) of 103.2 x10_2/uL. It also gave a KIDNEY_L (24 h) of 1 g, a KIDNEY_R (24 h) of 1 g and a KIDNEY_TOTAL (24 h) of 2 g. For the same compound, the LIVER (24 h) was 11.1 g, the A/G (24 h) was 1.6 and the ALP (24 h) was 978 IU/L. It also gave an ALT (24 h) of 34.2 IU/L, an AST (24 h) of 68 IU/L and a BUN (24 h) of 14.6 mg/dL. The CRE (24 h) was 0.4 mg/dL, the Ca (24 h) was 10.6 mg/dL and the Cl (24 h) was 102.4 meq/L. The DBIL (24 h) was 0.098 mg/dL, the GLC (24 h) was 209 mg/dL and the IP (24 h) was 8.3 mg/dL. The K (24 h) was 4 meq/L, the LDH (24 h) was 230.4 IU/L and the Na (24 h) was 140 meq/L. The PL (24 h) was 142.8 mg/dL, the RALB (24 h) was 3.5 g/dL and the TBIL (24 h) was 0.1 mg/dL. The TC (24 h) was 67.8 mg/dL, the TG (24 h) was 122.6 mg/dL and the TP (24 h) was 5.6 g/dL. For the same compound, the gamma-GTP (24 h) was 1.4 IU/L.

— ChEMBL document CHEMBL3885861, “Open TG-GATES”
